Compound	melting point
Cn1c2ccccc2c2c3ccc(Cl)cc3c(=O)[nH]c21	> 310 °C
CC(C)(C)c1noc(NS(=O)(=O)c2ccccc2)c1Br	108 to 109 °C
CCCn1nc(-c2ccc(OC)cc2)cc(C(=O)OC)c1=O	105 to 106 °C
CCCCCN(CCCCC)C(=O)C(CCC(=O)O)CS(=O)(=O)c1ccc(C(C)=O)cc1 (stereo unspecified)	69 to 71 °C
Clc1ccc(-c2csc(-c3cnccc3Cl)n2)cc1	149 to 150 °C
COc1cccc(C(=O)c2[nH]c3cc(Cl)ccc3c2NC(C)=O)c1	161 to 162 °C
CC(=O)N1C(SCc2ccccc2N(C)C)=NC(=O)C1(C)C	99 to 100 °C
COc1ccc(-c2cc(=Nc3c(C)cc(C)cc3C)n(C)c(N3CCNCC3)n2)cc1OC	185 to 189 °C
O=C(O)CCc1cc2ccc(C(F)(F)F)cc2n1S(=O)(=O)c1ccccc1	168 to 169 °C
O=S1(=O)N=CN(C2CCCCC2)c2cc(Cl)ccc21	189 to 191 °C
NCC1(SCc2ccccc2)C2CC3CC(C2)CC1C3 (stereo unspecified)	82 to 85 °C
COc1ccccc1N1CCN(C(=O)[C@H](N)Cc2cccnc2)CC1	> 240 °C
CCCNC(=O)Nc1nn(Cc2ccccc2)cc1C(=O)OCC	100 to 101 °C
Cc1nccn1CCCCC(=O)NCc1ccc(Cl)cc1	72 to 75 °C
COc1ccc(-c2nnc3c4ccccc4c(Cl)nn23)cc1	192 to 193 °C
O=C(O)Cc1ccc(-n2cc(Cl)cn2)c(Cl)c1	132 to 133 °C
CCCCCCc1ccc(-n2c(-c3ccc(C)cc3)cc(Br)c2-c2ccc(C)cc2)cc1	134 to 135 °C
CN1C=C(N2CCCC2)c2ccc3ccccc3c2S1(=O)=O	176 to 178 °C
CC(C)(Sc1nnnn1-c1ccccc1)c1ccc([N+](=O)[O-])cc1	122 °C
CC(=O)Nc1ccccc1NS(=O)(=O)c1cc(C(=O)O)cc(NCc2ccco2)c1Oc1ccccc1	207 to 210 °C
C=CCN(c1ccc(Cl)cc1[N+](=O)[O-])S(=O)(=O)c1ccc(C)cc1	77 to 78 °C
Cc1ccc(-c2cn3c(n2)sc2cc(O)ccc23)cc1	275 to 277 °C
C#Cc1ccc(NC(=O)CCCC(=O)O)cc1	135 to 140 °C
O=C(CN1CCCC1)Nc1ccc(Br)cc1	60 to 63 °C
OCc1cn(Cc2ccc(OCc3ccccc3)cc2)nc1-c1ccc(F)cc1	112 to 113 °C
CCCCn1c(=O)c2c(cnn2S(=O)(=O)CCC)n(CCCC)c1=O	44 to 48 °C

Compound	melting point
CN(C)CCCNC1c2ccccc2C(=O)N1c1ccc2ccc(Cl)nc2n1 (stereo unspecified)	143 °C
CN(C)C(=O)N1CCN(Cc2ccc3c(c2)-c2[nH]nc(-c4ccsc4)c2C3)CC1	214 to 216 °C
Cc1ccc(C2CCN(C(=O)Nc3ccc4nc(CN(C(C)C)C(C)C)ccc4c3)CC2)cc1	184 to 186 °C
CCN(C(=O)n1occc1=O)c1ccc(Cl)cc1	149 °C
CC(C)(C)OC(=O)c1cc2cc(Cl)ccc2[nH]1	140 to 142 °C
Cc1cc(SC#N)c(C(C)(C)C)cc1O	99 to 102 °C
Nc1nc[nH]c1-c1n[nH]c(-c2ccc(-c3ccccc3)cc2)n1	230 °C
O=C(Oc1ccc(Oc2ccccc2)cc1)N1CCC(CO)CC1	71 to 74 °C
O=C(OCc1ccccc1)c1cc(I)ccc1OCc1ccccc1	72 to 73 °C
COC(=O)c1cccc(OCCN2CCN(c3cc(Cl)nnc3Cl)CC2)c1	105 to 107 °C
N[C@H]1CC[C@H](CNc2ncc3ncnc(Nc4ccc(F)c(Cl)c4)c3n2)CC1	166 to 169 °C
C=CCc1cccnc1C(=O)OC	116 to 119 °C
COC(=O)C(=NO)c1ccccc1COc1ccccc1C	115 °C
NC1SC2=CC=CC2=C1C(=O)c1ccc(Br)cc1 (stereo unspecified)	205 to 206 °C
CN1CCC(=C2c3ccc(Cl)cc3CC(=O)c3sccc32)CC1	150 to 151 °C
COc1ccc2sc(C(=O)Oc3ccccc3)c(Oc3ccccc3)c2c1	198 °C
CCCCCCCCCCCCCCCCCCOc1cc(OCCOCCOCCOCC)cc(C(=O)O)c1	38 to 40 °C
C[C@H](CN(C(=O)C1(C)C2CCC1CC2)c1ccccn1)N1CCN(c2cccc3[nH]ccc23)CC1 (stereo partly specified)	236 to 238 °C
O=C(NC1CCCC1)c1ccc(S(=O)(=O)Cl)cc1	143 °C
CCCCc1ccc(NC(=O)CCc2ccccc2)c(=O)n1CC(=O)OC	84 to 85 °C
COc1ccc(C2CNC(=O)N2C)cc1NC1CC2CCC1C2 (stereo unspecified)	171 to 174 °C
O=C1CCC(Nc2ncnc3c2ncn3C2OC(CO)C(O)C2O)N1 (stereo unspecified)	198 to 200 °C
CN(C)c1ncc2c(=O)n(Cc3ccccn3)sc2n1	145 to 146 °C
C=CCC1C(=O)N(Cc2ccccc2)c2ccccc2NC1C (stereo unspecified)	81 to 83 °C
CNC(=O)COc1cccc(CCNC(=O)/C=C/c2cccnc2)c1	140 to 141 °C

Source: a melting point compilation (Tetko et al.; mined from patent text by program, amines drawn as free bases though some values may be those of a salt)
